Experimental data reported in ChEMBL document CHEMBL3885861, “Open TG-GATES”.

Species: Rattus norvegicus
Test: Open TG-GATES - Regimen: Single
Type: toxicity, organism-based, Sprague-Dawley
Set-up: regimen Single, gender Male, age 6 weeks
Details: in vivo, po, 0 mg/kg, route gavage, dose level Control; for APTT / Bas / Eos / Fbg / Hb / Ht / Lym / MCH / MCHC / MCV / Mono / Neu / PT / Plat / RBC / Ret / WBC: tissue Blood; for A/G / ALP / ALT / AST / BUN / CRE / Ca / Cl / DBIL / GLC / IP / K / LDH / Na / PL / RALB / TBIL / TC / TG / TP / gamma-GTP: tissue Plasma

`Cn1cc[nH]c1=S` [METHIMAZOLE] was tested, and the TERMINAL_BW (3 h) was 207.3 g, the APTT (3 h) was 20.3 s and the Bas (3 h) was 0%. The Eos (3 h) was 0.4%, the Fbg (3 h) was 292.4 mg/dL and the Hb (3 h) was 13.6 g/dL. The Ht (3 h) was 38.8%, the Lym (3 h) was 82.4% and the MCH (3 h) was 22.3 pg. It also gave an MCHC (3 h) of 35.1%, an MCV (3 h) of 63.5 fL and a Mono (3 h) of 1.8%. For the same compound, the Neu (3 h) was 14.6%, the PT (3 h) was 15.8 s and the Plat (3 h) was 122.5 x10_4/uL. The RBC (3 h) was 612 x10_4/ul, the Ret (3 h) was 8.6% and the WBC (3 h) was 96.4 x10_2/uL. The A/G (3 h) was 1.3, the ALP (3 h) was 1879.2 IU/L and the ALT (3 h) was 44.4 IU/L. It also gave an AST (3 h) of 75.8 IU/L, a BUN (3 h) of 14.4 mg/dL and a CRE (3 h) of 0.2 mg/dL. The Ca (3 h) was 10.6 mg/dL, the Cl (3 h) was 106.8 meq/L and the DBIL (3 h) was 0.002 mg/dL. It also gave a GLC (3 h) of 190.6 mg/dL, an IP (3 h) of 8.2 mg/dL and a K (3 h) of 4.1 meq/L. It also gave an LDH (3 h) of 186.8 IU/L, a Na (3 h) of 142 meq/L and a PL (3 h) of 143.6 mg/dL. The RALB (3 h) was 3 g/dL, the TBIL (3 h) was 0.02 mg/dL and the TC (3 h) was 84 mg/dL. The TG (3 h) was 55.6 mg/dL, the TP (3 h) was 5.4 g/dL and the gamma-GTP (3 h) was 1 IU/L. The TERMINAL_BW (6 h) was 210.9 g, the APTT (6 h) was 21.9 s and the Bas (6 h) was 0%. It also gave an Eos (6 h) of 0.8%, a Fbg (6 h) of 287.6 mg/dL and a Hb (6 h) of 13.5 g/dL. The Ht (6 h) was 38.4%, the Lym (6 h) was 82% and the MCH (6 h) was 22.3 pg. It also gave an MCHC (6 h) of 35.1%, an MCV (6 h) of 63.6 fL and a Mono (6 h) of 2.6%. It also gave a Neu (6 h) of 13.8%, a PT (6 h) of 16 s and a Plat (6 h) of 117.7 x10_4/uL. The RBC (6 h) was 605 x10_4/ul, the Ret (6 h) was 9.1% and the WBC (6 h) was 103.6 x10_2/uL. The A/G (6 h) was 1.2, the ALP (6 h) was 1447.2 IU/L and the ALT (6 h) was 47.2 IU/L. It also gave an AST (6 h) of 77.4 IU/L, a BUN (6 h) of 10.8 mg/dL and a CRE (6 h) of 0.1 mg/dL. It also gave a Ca (6 h) of 10.6 mg/dL, a Cl (6 h) of 106.4 meq/L and a DBIL (6 h) of 0 mg/dL. It also gave a GLC (6 h) of 185 mg/dL, an IP (6 h) of 9.7 mg/dL and a K (6 h) of 4.4 meq/L. For the same compound, the LDH (6 h) was 228 IU/L, the Na (6 h) was 141.8 meq/L and the PL (6 h) was 141.6 mg/dL. The RALB (6 h) was 3 g/dL, the TBIL (6 h) was 0.022 mg/dL and the TC (6 h) was 79.4 mg/dL. The TG (6 h) was 54.2 mg/dL, the TP (6 h) was 5.4 g/dL and the gamma-GTP (6 h) was 1 IU/L. For the same compound, the TERMINAL_BW (9 h) was 203.8 g, the APTT (9 h) was 21.7 s and the Bas (9 h) was 0%. The Eos (9 h) was 0.8%, the Fbg (9 h) was 302.2 mg/dL and the Hb (9 h) was 13.4 g/dL. For the same compound, the Ht (9 h) was 38.7%, the Lym (9 h) was 81.6% and the MCH (9 h) was 22 pg. It also gave an MCHC (9 h) of 34.7%, an MCV (9 h) of 63.4 fL and a Mono (9 h) of 2.2%. For the same compound, the Neu (9 h) was 14.8%, the PT (9 h) was 16 s and the Plat (9 h) was 119.6 x10_4/uL. For the same compound, the RBC (9 h) was 610 x10_4/ul, the Ret (9 h) was 7.7% and the WBC (9 h) was 102.4 x10_2/uL. For the same compound, the A/G (9 h) was 1.1, the ALP (9 h) was 1453.2 IU/L and the ALT (9 h) was 40.2 IU/L. For the same compound, the AST (9 h) was 68.8 IU/L, the BUN (9 h) was 11.4 mg/dL and the CRE (9 h) was 0.1 mg/dL. It also gave a Ca (9 h) of 10.4 mg/dL, a Cl (9 h) of 106 meq/L and a DBIL (9 h) of 0.002 mg/dL. The GLC (9 h) was 184.2 mg/dL, the IP (9 h) was 9.8 mg/dL and the K (9 h) was 4.1 meq/L. For the same compound, the LDH (9 h) was 181.8 IU/L, the Na (9 h) was 141.6 meq/L and the PL (9 h) was 136.8 mg/dL. It also gave an RALB (9 h) of 2.9 g/dL, a TBIL (9 h) of 0.014 mg/dL and a TC (9 h) of 73 mg/dL. The TG (9 h) was 75.6 mg/dL, the TP (9 h) was 5.5 g/dL and the gamma-GTP (9 h) was 1.2 IU/L. For the same compound, the TERMINAL_BW (24 h) was 225.5 g, the APTT (24 h) was 21.4 s and the Bas (24 h) was 0%. It also gave an Eos (24 h) of 1%, a Fbg (24 h) of 315 mg/dL and a Hb (24 h) of 13.7 g/dL. For the same compound, the Ht (24 h) was 38.8%, the Lym (24 h) was 78% and the MCH (24 h) was 22.1 pg. It also gave an MCHC (24 h) of 35.3%, an MCV (24 h) of 62.5 fL and a Mono (24 h) of 2.8%. It also gave a Neu (24 h) of 17.4%, a PT (24 h) of 15.7 s and a Plat (24 h) of 124.5 x10_4/uL. It also gave an RBC (24 h) of 621.4 x10_4/ul, a Ret (24 h) of 8.2% and a WBC (24 h) of 97.4 x10_2/uL. For the same compound, the A/G (24 h) was 1.1, the ALP (24 h) was 1887.6 IU/L and the ALT (24 h) was 42.8 IU/L. The AST (24 h) was 69 IU/L, the BUN (24 h) was 15.8 mg/dL and the CRE (24 h) was 0.1 mg/dL. It also gave a Ca (24 h) of 11 mg/dL, a Cl (24 h) of 104.6 meq/L and a DBIL (24 h) of 0 mg/dL. It also gave a GLC (24 h) of 180.6 mg/dL, an IP (24 h) of 7.6 mg/dL and a K (24 h) of 4.2 meq/L. For the same compound, the LDH (24 h) was 183.2 IU/L, the Na (24 h) was 142.4 meq/L and the PL (24 h) was 156.6 mg/dL. It also gave an RALB (24 h) of 2.9 g/dL, a TBIL (24 h) of 0.004 mg/dL and a TC (24 h) of 77.8 mg/dL. For the same compound, the TG (24 h) was 120.4 mg/dL, the TP (24 h) was 5.6 g/dL and the gamma-GTP (24 h) was 1 IU/L.
